According to US20260207605A1, “KRAS G12D INHIBITORS AND USES THEREOF” (Abbisko Therapeutics Co., Ltd., priority 2022, published 2026):
Read-outs that look alike come from different tables or passages of the source.

Key:
[1] = Pharmacokinetic experiment in mice (single PO or IV administration); conditions: male, ICR, mouse, plasma
KRAS^G12D/cRAF = KRAS^G12D/cRAF (Homo sapiens, UniProt P01116, G12D); experiment: KRAS G12D/cRAF binding test (Alphalisa); conditions: His-tagged KRAS G12D with GMPPNP, GST-tagged cRAF
KRAS^G12D/cRAF, sequence (P01116 1-188 isoform P01116-2 G12D): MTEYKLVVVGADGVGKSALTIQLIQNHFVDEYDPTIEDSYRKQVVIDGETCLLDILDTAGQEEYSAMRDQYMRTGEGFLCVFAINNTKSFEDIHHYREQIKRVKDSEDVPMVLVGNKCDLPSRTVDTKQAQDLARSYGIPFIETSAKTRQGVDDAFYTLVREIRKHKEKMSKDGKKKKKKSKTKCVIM
Method: The compound was dissolved in 100% DMSO at a starting concentration of 5 mM and diluted in DMSO with a 3-fold serial dilution method for a total of 8 concentration points. 1 μL of the compound or DMSO at each concentration point was added into 99 μL of the experimental buffer to obtain 10× stock solution.
(§1) The ratio for each compound concentration was calculated from the signal of the DMSO control group contained in each assay plate and the Alphalisa signal in each compound well. The compound concentration required for inhibitory concentration at 50% (IC50) was determined using a four-parameter logarithmic dose-response equation by testing the concentration of the compound and the value of the ratio. The endpoint value (IC50) of the reference compound was assessed in each experiment as a quality control measure. If the endpoint value is within three times the expected value, the experiment may be considered acceptable.

LS513 = experiment: Anti-proliferative 2D CTG assay, LS513; assay type: cell-based; conditions: Homo sapiens, LS-513, 96 h, LS513 cells, 4 days incubation, read-out: LS513 cell IC50
Method: (§2) 1.1 Day 0 Cell Culture and Plating
(§3) Cells in a logarithmic growth phase were harvested and the cells were counted by using a […]. Cell viability was tested by using a trypan blue exclusion method to ensure that cell viability was above 90%. The cell concentration was adjusted to the desired final density, and 90 μL of cell suspension was added to a 96-well plate, then the cells were incubated overnight at 37° C., 5% CO2 and 95% humidity.
(§4) 10 μL PBS was added to each well of the TO plate containing cells. The CTG reagent was thawed and the plate was equilibrated to room temperature for 30 minutes. The CTG solution of 50 µL/well was added to each well. The cells were lysed by shaking on an orbital shaker for 5 minutes. The plate was left at room temperature for 20 minutes to stabilize the luminescence signal. The TO fluorescence signal value was read.
(§5) From the 10 mM stock solution, with a ratio of 1:5, 9-point serial dilutions were performed. The 10× medium containing the compound was transferred into corresponding wells of the 96 wells. The final maximum compound concentration was […] and the final DMSO concentration was 0.1%. The 96-well plate was placed in a 37° C. incubator and incubated for 4 days.
(§6) 50 μL/well of detection reagent (CTG) was added to the cells, and the signal was read in an Envision machine.
as §1, with “The percent inhibition (%) at” for “The ratio for”, “signal in” for “signal of”, “the HPE and ZPE” for “the DMSO”, “control wells and the fluorescence signal in the individual compound wells included” for “control group contained”, “assay plate. […]” for “assay plate and the Alphalisa signal in each compound well.”, “the inhibition percentage value.” for “the value of the ratio.”

AsPC-1 = experiment: Anti-proliferative 2D CTG assay, AsPC-1; assay type: cell-based; conditions: AsPC-1 cells, 4 days incubation, read-out: AsPC-1 cell IC50
Method: as §2, §3, §4, §5, §6
as §1, with “The percent inhibition (%) at” for “The ratio for”, “signal in” for “signal of”, “the HPE and ZPE” for “the DMSO”, “control wells and the fluorescence signal in the individual compound wells included” for “control group contained”, “assay plate. […]” for “assay plate and the Alphalisa signal in each compound well.”, “the inhibition percentage value.” for “the value of the ratio.”

AGS = experiment: Anti-proliferative 2D CTG assay, AGS; assay type: cell-based; conditions: AGS cells, 4 days incubation, read-out: AGS cell IC50
Method: as §2, §3, §4, §5, §6
as §1, with “The percent inhibition (%) at” for “The ratio for”, “signal in” for “signal of”, “the HPE and ZPE” for “the DMSO”, “control wells and the fluorescence signal in the individual compound wells included” for “control group contained”, “assay plate. […]” for “assay plate and the Alphalisa signal in each compound well.”, “the inhibition percentage value.” for “the value of the ratio.”

HPAC = experiment: Anti-proliferative 2D CTG assay, HPAC; assay type: cell-based; conditions: Homo sapiens, 96 h, HPAC cells, 4 days incubation, read-out: HPAC cell IC50
Method: as §2, §3, §4, §5, §6
as §1, with “The percent inhibition (%) at” for “The ratio for”, “signal in” for “signal of”, “the HPE and ZPE” for “the DMSO”, “control wells and the fluorescence signal in the individual compound wells included” for “control group contained”, “assay plate. […]” for “assay plate and the Alphalisa signal in each compound well.”, “the inhibition percentage value.” for “the value of the ratio.”

| Compound | AUC ([1]; iv, 2 mg/kg) [ng·h/mL] | Cmax ([1]; iv, 2 mg/kg) [ng/mL] | half-life ([1]; iv, 2 mg/kg) [h] | AUC ([1]; po, 10 mg/kg) [ng·h/mL] | Cmax ([1]; po, 10 mg/kg) [ng/mL] | bioavailability ([1]; po, 10 mg/kg) [%] | half-life ([1]; po, 10 mg/kg) [h] | IC50 (KRAS^G12D/cRAF) [nM] | IC50 (LS513) [nM] | IC50 (AsPC-1; Homo sapiens, ASPC1, 96 h) [nM] | IC50 (AGS; Homo sapiens, AGS, 96 h) [nM] | IC50 (HPAC) [nM] | IC50 (AsPC-1) [nM] | IC50 (AGS) [nM] |
| --- | --- | --- | --- | --- | --- | --- | --- | --- | --- | --- | --- | --- | --- | --- |
| [2H]C([2H])([2H])C([2H])([2H])[C@@]12CC[C@@H](CN(c3nc(OC[C@@]45CCCN4C/C(=C\F)C5)nc4c(F)c(-c5cc(N)cc6ccc(F)c(C#C)c56)ncc34)C1)N2 [Example 137, 4-(4-((1R,5S)-1-(ethyl-d5)-3,8-diazabicyclo[3.2.1]octan-3-yl)-8-fluoro-2-(((S,Z)-2-(fluoromethylene)tetrahydro-1H-pyrrolizin-7a(5H)-yl)methoxy)pyrido [4,3-d]pyrimidin-7-yl)-5-ethynyl-6-fluoronaphthalen-2-amine] | 775 | 467 | 5.9 | 1880 | 298 | 48.6 | 2.9 | 9.5 | 14.4 | 37.6 | 9.4 | 11.7 | – | – |
| [2H]C([2H])([2H])C([2H])([2H])[C@@]12CC[C@@H](CN(c3nc(OC[C@@]45CCCN4C/C(=C\F)C5)nc4c(F)c(-c5ccc(F)c6sc(N)c(C#N)c56)c(Cl)cc34)C1)N2 (single isomer, unassigned) [Example 361] | 221 | 179 | 13.7 | 370 | 164 | 33.5 | 9.6 | 7.1 | 40 | – | – | 38 | – | – |
| [2H]C([2H])([2H])C([2H])([2H])[C@@]12CC[C@@H](CN(c3nc(OC[C@@]45CCCN4CC(=C(F)F)C5)nc4c(F)c(-c5cc(O)cc6ccc(F)c(C#C)c56)ncc34)C1)N2 [Example 47, 4-(2-(((S)-2-(difluoromethylene)tetrahydro-1H-pyrrolizin-7a (5H)-yl)methoxy)-4-((1R,5S)-1-(ethyl-d5)-3,8-diazabicyclo [3.2.1]octan-3-yl)-8-fluoropyrido [4,3-d]pyrimidin-7-yl)-5-ethynyl-6-fluoronaphthalen-2-ol] | – | – | – | – | – | – | – | 14.6 | 23.9 | 46.3 | 4.8 | 23.1 | – | – |
| [2H]C([2H])([2H])OC[C@@]12CC[C@@H](CN(c3nc(OC[C@@]45CCCN4C/C(=C\F)C5)nc4c(F)c(-c5cc(O)cc6ccc(F)c(C#C)c56)ncc34)C1)N2 [Example 62, 5-ethynyl-6-fluoro-4-(8-fluoro-2-(((S,Z)-2-(fluoromethylene)tetrahydro-1H-pyrrolizin-7a(5H)-yl)methoxy)-4-((1R,5S)-1-((methoxy-d3)methyl)-3,8-diazabicyclo[3.2.1]octan-3-yl)pyrido[4,3-d]pyrimidin-7-yl) naphthalen-2-ol] | 849 | 764 | 4.9 | 619 | 224 | 14.6 | 5.7 | 5.1 | 4.9 | – | – | 9.7 | 19.8 | 1.5 |
| C#Cc1c(F)ccc2cc(O)cc(-c3ncc4c(N5C[C@@H]6CC[C@](CC)(C5)N6)nc(OC[C@@]56CCCN5C/C(=C\F)C6)nc4c3F)c12 [Example 56, 4-(4-((1R,5S)-1-ethyl-3,8-diazabicyclo[3.2.1]octan-3-yl)-8-fluoro-2-(((S,Z)-2-(fluoromethylene)tetrahydro-1H-pyrrolizin-7a (5H)-yl)methoxy)pyrido[4,3-d]pyrimidin-7-yl)-5-ethynyl-6-fluoronaphthalen-2-ol] | – | – | – | – | – | – | – | – | 2.6 | – | – | 2.5 | 9.1 | 0.6 |
| [2H]C([2H])([2H])C([2H])([2H])[C@@]12CC[C@@H](CN(c3nc(OC[C@@]45CCCN4CC(=C)C5)nc4c(F)c(-c5cc(N)cc6ccc(F)c(C#C)c56)ncc34)C1)N2 [Example 357, 4-(4-((1R,5S)-1-(ethyl-d5)-3,8-diazabicyclo[3.2.1]octan-3-yl)-8-fluoro-2-(((S)-2-methylenetetrahydro-1H-pyrrolizin-7a(5H)-yl)methoxy)pyrido[4,3-d]pyrimidin-7-yl)-5-ethynyl-6-fluoronaphthalen-2-amine] | – | – | – | – | – | – | – | – | 57.4 | – | 23 | 46.9 | – | – |
| C#Cc1c(F)ccc2cc(O)cc(-c3ncc4c(N5C[C@@H]6CC[C@](C7CCCC7)(C5)N6)nc(OC[C@@]56CCCN5C/C(=C\F)C6)nc4c3F)c12 [Example 75, 4-(4-((1S,5S)-1-cyclopentyl-3,8-diazabicyclo[3.2.1]octan-3-yl)-8-fluoro-2-(((S,Z)-2-(fluoromethylene)tetrahydro-1H-pyrrolizin-7a (5H)-yl)methoxy)pyrido[4,3-d]pyrimidin-7-yl)-5-ethynyl-6-fluoronaphthalen-2-ol] | – | – | – | – | – | – | – | 34.5 | 56.1 | – | 14.2 | 93.6 | – | – |
| C#Cc1c(F)ccc2cc(O)cc(-c3ncc4c(N5CC6CCC(C5)N6)nc(OC[C@@]56CCCN5C[C@H](F)C6)nc4c3F)c12 [Positive Compound 1, reference compound] | 367 | 1130 | – | 40.2 | 20.6 | 2.2 | – | – | 18.1 | 34.9 | 4.2 | 10.3 | – | – |
| [2H]C([2H])([2H])C([2H])([2H])[C@@]12CC[C@@H](CN(c3nc(OC[C@@]45CCCN4C/C(=C\F)C5)nc4c(F)c(-c5cccc6sc(N)c(C#N)c56)c(Cl)cc34)C1)N2 [Example 362, 2-amino-4-(6-chloro-4-((1R,5S)-1-(ethyl-d5)-3,8-diazabicyclo [3.2.1]octan-3-yl)-8-fluoro-2-(((S,Z)-2-(fluoromethylene)tetra-hydro-1H-pyrrolizin-7a(5H)-yl)methoxy)quinazolin-7-yl)benzo [b]thiophene-3-carbonitrile] | – | – | – | – | – | – | – | 27.7 | 65.7 | – | – | 61.8 | – | – |
| [2H]C([2H])([2H])C([2H])([2H])[C@@]12CC[C@@H](CN(c3nc(OC[C@@]45CCCN4C/C(=C\F)C5)nc4c(F)c(-c5cc(O)cc6ccc(F)c(C#C)c56)ncc34)C1)N2 [Example 71, 4-(4-((1R,5S)-1-(ethyl-d5)-3,8-diazabicyclo[3.2.1]octan-3-yl)-8-fluoro-2-(((S,Z)-2-(fluoromethylene)tetrahydro-1H-pyrrolizin-7a(5H)-yl)methoxy)pyrido[4,3-d]pyrimidin-7-yl)-5-ethynyl-6-fluoronaphthalen-2-ol] | 497 | 638 | 6.6 | 1020 | 461 | 41.1 | 4.9 | 5.6 | 4.1 | 16.7 | 1.4 | 2.3 | – | – |
| C#Cc1c(F)ccc2cc(O)cc(-c3ncc4c(N5C[C@@H]6CC[C@](CC)(C5)N6)nc(OC[C@@]56CCCN5C[C@H](F)C6)nc4c3F)c12 [Positive Compound 2, reference compound] | – | – | – | – | – | – | – | – | 59.4 | 83.3 | 9.2 | 33 | – | – |
